pEC50, pKi: −log10 of the molar value. Where two headings read alike, the source gives them in different places.
What was measured:
human CB1 receptor [1] = target: T1, human CB1 receptor (Homo sapiens, UniProt P21554); assay: [35S] GTPγS binding on membranes of CHO cells expressing the human CB1 receptor (agonism); type: biochemical; design: expressed in transfected cells; membrane preparation
Summary of the method: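 Membranes from human CB1-expressing CHO cells (5 μg/well) incubated with test compound and [35S]GTPγS in 50 mM Tris pH 7.4, 100 mM NaCl, 3 mM MgCl2, 0.2 mM EGTA, 0.04% BSA for 45 min at 37 °C. Bound label collected by filtration, scintillation counted; EC50 from curve fits.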

human CB1 receptor [2] = target: T1, human CB1 receptor; assay: Human CB1 receptor binding, [3H] CP-55,940 displacement on HEK cell membranes; design: expressed in transfected cells; host or cells: HEK cells, doxycycline-induced; membrane preparation
Summary of the method: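 Membranes from doxycycline-induced HEK cells expressing human CB1 incubated 60 min at room temperature with [3H] CP-55,940 (final […]) in 50 mM Tris pH 7.4, 100 mM NaCl, 3 mM MgCl2, 0.2 mM EGTA, 0.04% BSA. Nonspecific binding defined with 50 μM WIN-55,212-2; filtration and scintillation counting gave EC50 and Ki.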

[3] = GTPγS EC50, human CB1, CHO cell membranes
[4] = human CB1, CHO cell membranes, read-out: GTPγS EC50

T1 sequence (P21554 whole entry): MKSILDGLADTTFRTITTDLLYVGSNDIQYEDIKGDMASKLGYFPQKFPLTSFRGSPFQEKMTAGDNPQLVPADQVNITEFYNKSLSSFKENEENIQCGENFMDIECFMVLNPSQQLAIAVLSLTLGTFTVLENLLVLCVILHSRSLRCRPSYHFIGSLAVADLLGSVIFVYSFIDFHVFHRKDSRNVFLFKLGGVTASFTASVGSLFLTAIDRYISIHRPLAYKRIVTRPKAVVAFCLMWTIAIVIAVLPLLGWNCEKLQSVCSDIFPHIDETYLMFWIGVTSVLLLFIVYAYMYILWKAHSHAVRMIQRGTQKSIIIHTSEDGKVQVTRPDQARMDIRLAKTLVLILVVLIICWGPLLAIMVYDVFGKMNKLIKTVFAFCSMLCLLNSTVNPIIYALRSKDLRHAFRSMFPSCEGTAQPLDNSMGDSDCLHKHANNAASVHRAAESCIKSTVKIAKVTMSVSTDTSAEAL

`CC(C)(C)[C@H](NC(=O)c1nn(Cc2ccc(C#N)cc2F)c2c(F)cccc12)C(=O)NC1CC1` [Example 373] was tested, and the pEC50 (human CB1 receptor [1]; [3]) was 7.94 and the pKi (human CB1 receptor [2]; CB1 Ki) was 7.84.
`CC(C)(C)[C@H](NC(=O)c1nn(Cc2ccc(C#N)cc2F)c2c(F)c(F)ccc12)C(=O)NC1CC1` [Example 374] gave a pEC50 (human CB1 receptor [1]; [3]) of 7.90 and a pKi (human CB1 receptor [2]; CB1 Ki) of 8.13.
For `CC(C)(C)[C@H](NC(=O)c1nn(Cc2ccc(C#N)cc2F)c2c(F)cccc12)C(=O)NCc1nnc(C(N)=O)o1` [Example 375], the pEC50 (human CB1 receptor [1]; [4]) was 7.50 and the pKi (human CB1 receptor [2]; read-out: CB1 Ki) was 8.10.
For `CC(C)(C)[C@H](NC(=O)c1nn(Cc2ccc(F)cc2)c2ccccc12)C(=O)NCC(=O)NCCO` [Example 376], the pEC50 (human CB1 receptor [1]; [3]) was 8.36 and the pKi (human CB1 receptor [2]; CB1 Ki) was 8.82.
Work on `CCOC(=O)[C@H]1C[C@@H](NC(=O)[C@@H](NC(=O)c2nn(Cc3ccc(F)cc3)c3ccccc23)C(C)(C)C)C1` [Example 381] yielded a pEC50 (human CB1 receptor [1]; [4]) of 7.57 and a pKi (human CB1 receptor [2]; read-out: CB1 Ki) of 7.82.
With `CC(C)NS(=O)(=O)CCNC(=O)[C@@H](NC(=O)c1nn(Cc2ccc(F)cc2)c2ccccc12)C(C)(C)C` [Example 395] the pEC50 (human CB1 receptor [1]; [4]) was 7.51 and the pKi (human CB1 receptor [2]; read-out: CB1 Ki) was 7.39.
`CC(C)(C)[C@H](NC(=O)c1nn(Cc2ccc(F)cc2)c2ccccc12)C(=O)N[C@H]1C[C@@H](C(N)=O)C1` [Example 398] was tested, and the pEC50 (human CB1 receptor [1]; [3]) was 7.58 and the pKi (human CB1 receptor [2]; CB1 Ki) was 8.24.
`CC(C)(C)[C@H](NC(=O)c1nn(Cc2ccc(F)cc2)c2ccccc12)C(=O)NCCS(=O)(=O)NCC1CC1` [Example 400] gave a pEC50 (human CB1 receptor [1]; [4]) of 7.55 and a pKi (human CB1 receptor [2]; read-out: CB1 Ki) of 7.91.
Work on `CC(C)(C)[C@H](NC(=O)c1nn(Cc2ccc(F)cc2)c2ccccc12)C(=O)NCC1CCC(=O)N1` (stereo partly drawn) [Example 404] yielded a pEC50 (human CB1 receptor [1]; [3]) of 7.42 and a pKi (human CB1 receptor [2]; CB1 Ki) of 7.88.
`CN1CC(CNC(=O)[C@@H](NC(=O)c2nn(Cc3ccc(F)cc3)c3ccccc23)C(C)(C)C)CC1=O` (stereo partly drawn) [Example 411] was tested, and the pEC50 (human CB1 receptor [1]; [4]) was 7.67 and the pKi (human CB1 receptor [2]; read-out: CB1 Ki) was 8.43.
`CC(C)(C)[C@H](NC(=O)c1nn(Cc2ccc(F)cc2)c2ccccc12)C(=O)NCc1n[nH]c(C2CC2)n1` [Example 413] gave a pEC50 (human CB1 receptor [1]; [4]) of 7.28 and a pKi (human CB1 receptor [2]; read-out: CB1 Ki) of 7.85.
`CC(C)(C)[C@H](NC(=O)c1nn(Cc2ccc(F)cc2)c2ccccc12)C(=O)NCc1n[nH]c(-c2ccccc2)n1` [Example 414] gave a pEC50 (human CB1 receptor [1]; [4]) of 7.41 and a pKi (human CB1 receptor [2]; read-out: CB1 Ki) of 8.12.
For `CC(C)(C)[C@H](NC(=O)c1nn(Cc2ccc(F)cc2)c2ccccc12)C(=O)NCc1nc2n(n1)CCC2` [Example 415], the pEC50 (human CB1 receptor [1]; [4]) was 7.97 and the pKi (human CB1 receptor [2]; read-out: CB1 Ki) was 8.06.
In the case of `Cn1nc(CNC(=O)[C@@H](NC(=O)c2nn(Cc3ccc(F)cc3)c3ccccc23)C(C)(C)C)cc1C1CCC1` [Example 416], the pEC50 (human CB1 receptor [1]; [4]) was 7.33 and the pKi (human CB1 receptor [2]; read-out: CB1 Ki) was 8.03.
`CC(C)(C)[C@H](NC(=O)c1nn(Cc2ccc(F)cc2)c2ccccc12)C(=O)NCc1cnn2cccnc12` [Example 417] was tested, and the pEC50 (human CB1 receptor [1]; [4]) was 7.59 and the pKi (human CB1 receptor [2]; read-out: CB1 Ki) was 8.11.
With `CC(C)(C)[C@H](NC(=O)c1nn(Cc2ccc(F)cc2)c2ccccc12)C(=O)NCc1nc(-c2cnccn2)no1` [Example 418] the pEC50 (human CB1 receptor [1]; [4]) was 8.39 and the pKi (human CB1 receptor [2]; read-out: CB1 Ki) was 9.11.
`CC(C)(C)[C@H](NC(=O)c1nn(Cc2ccc(F)cc2)c2ccccc12)C(=O)NCc1cc(C2CCC2)[nH]n1` [Example 420] was tested, and the pEC50 (human CB1 receptor [1]; [4]) was 7.36 and the pKi (human CB1 receptor [2]; read-out: CB1 Ki) was 7.95.
Compound `Cc1nc(CNC(=O)[C@@H](NC(=O)c2nn(Cc3ccc(F)cc3)c3ccccc23)C(C)(C)C)nn1C` [Example 421] has a pEC50 (human CB1 receptor [1]; [4]) of 7.76 and a pKi (human CB1 receptor [2]; read-out: CB1 Ki) of 8.54.
In the case of `CC(C)(C)[C@H](NC(=O)c1nn(Cc2ccc(F)cc2)c2ccccc12)C(=O)NCc1cc(C2CC2)[nH]n1` [Example 422], the pEC50 (human CB1 receptor [1]; [4]) was 7.71 and the pKi (human CB1 receptor [2]; read-out: CB1 Ki) was 8.33.
For `Cn1cc(CNC(=O)[C@@H](NC(=O)c2nn(Cc3ccc(F)cc3)c3ccccc23)C(C)(C)C)cn1` [Example 423], the pEC50 (human CB1 receptor [1]; [3]) was 7.51 and the pKi (human CB1 receptor [2]; CB1 Ki) was 8.28.
Compound `CC(C)(C)[C@H](NC(=O)c1nn(Cc2ccc(F)cc2)c2ccccc12)C(=O)NCc1nc(-c2ccccn2)no1` [Example 424] has a pEC50 (human CB1 receptor [1]; [4]) of 7.99 and a pKi (human CB1 receptor [2]; read-out: CB1 Ki) of 8.89.
With `Cc1cc(CNC(=O)[C@@H](NC(=O)c2nn(Cc3ccc(F)cc3)c3ccccc23)C(C)(C)C)no1` [Example 425] the pEC50 (human CB1 receptor [1]; [3]) was 8.47 and the pKi (human CB1 receptor [2]; CB1 Ki) was 9.04.
Work on `CC(C)(C)[C@H](NC(=O)c1nn(Cc2ccc(F)cc2)c2ccccc12)C(=O)NCc1cnn(-c2ccccc2)n1` [Example 427] yielded a pEC50 (human CB1 receptor [1]; [4]) of 7.30 and a pKi (human CB1 receptor [2]; read-out: CB1 Ki) of 7.82.
`CC(C)(C)[C@H](NC(=O)c1nn(Cc2ccc(F)cc2)c2ccc(Cl)cc12)C(=O)NCCS(N)(=O)=O` [Example 432] gave a pEC50 (human CB1 receptor [1]; [3]) of 7.00 and a pKi (human CB1 receptor [2]; CB1 Ki) of 7.80.
In the case of `CC(C)(C)[C@H](NC(=O)c1nn(Cc2ccc(F)cc2)c2ccc(Cl)cc12)C(=O)NC1CCC1` [Example 438], the pEC50 (human CB1 receptor [1]; [3]) was 7.70 and the pKi (human CB1 receptor [2]; CB1 Ki) was 7.96.
`CC(C)(C)[C@H](NC(=O)c1nn(Cc2ccc(C#N)cc2)c2c(F)cccc12)C(=O)N[C@@H]1CNC(=O)C1` [Example 457] showed a pEC50 (human CB1 receptor [1]; [3]) of 6.97 and a pKi (human CB1 receptor [2]; CB1 Ki) of 8.75.
`CC(C)(C)[C@H](NC(=O)c1nn(Cc2ccc(F)cc2)c2ccccc12)C(=O)N[C@@H]1CNC(=O)C1` [Example 459] showed a pEC50 (human CB1 receptor [1]; [3]) of 7.75 and a pKi (human CB1 receptor [2]; CB1 Ki) of 8.56.
